Reference: US20110212834A1, “Pesticidal Compound Mixtures” (BAYER CROPSCIENCE AG, priority 2009, published 2011)

Assays:
Format in all cases: in vivo
Details in all cases: 144 h, single compound, after 6 d
Myzus persicae = Myzus persicae test, spray treatment of infested cabbage leaves
Method: (§1) To produce a suitable preparation of active compound, 1 part by weight of active compound is mixed with the stated amount of solvent and emulsifier, and the concentrate is diluted with emulsifier-containing water to the desired concentration.
Cabbage leaves (Brassica oleracea) which are heavily infested by the green peach aphid (Myzus persicae) are treated by being sprayed with the preparation of the active compound at the desired concentration.
After the specified period of time, the mortality in % is determined. 100% means that all the aphids have been killed; 0% means that none of the aphids have been killed.

Tetranychus urticae = experiment: Tetranychus test (OP-resistant), sprayed bean plants
Method: as §1
Bean plants (Phaseolus vulgaris) which are heavily infested with all stages of the two-spotted spider mite (Tetranychus urticae) are treated by being sprayed with the preparation of the active compound at the desired concentration.
After the specified period of time, mortality in % is determined. 100% means that all the spider mites have been killed; 0% means that none of the spider mites have been killed.

Phaedon cochleariae = Phaedon cochleariae larvae test, sprayed cabbage leaves
Method: as §1
Cabbage leaves (Brassica oleracea) are treated by being sprayed with the preparation of the active compound at the desired concentration and are infested with larvae of the mustard beetle (Phaedon cochleariae) as long as the leaves are still moist.
(§2) After the specified period of time, the mortality in % is determined. 100% means that all the beetle larvae have been killed; 0% means that none of the beetle larvae have been killed. According to the present application in this test e.g. the following combinations show a synergistic effect in comparison to the single compounds: […]

Spodoptera frugiperda = Spodoptera frugiperda test, sprayed cabbage leaves
Method: as §1
Cabbage leaves (Brassica oleracea) are treated by being sprayed with the preparation of the active compound at the desired concentration and are infested with larvae of the fall army worm (Spodoptera frugiperda) as long as the leaves are still moist.
as §2, with “caterpillars” for “beetle larvae”

SMILES | mortality at 500 g/ha (Myzus persicae) [%] | mortality at 500 g/ha (Phaedon cochleariae) [%] | mortality at 500 g/ha (Spodoptera frugiperda) [%] | further results
CC(C1CC1)C(O)(Cn1cncn1)c1ccc(Cl)cc1 (stereo not drawn) [Cyproconazole, cyproconazole] | 0 | 0 | – | mortality at 500 g/ha (Tetranychus urticae; 500 g/ha): 0%
CC(C)C1CCC(Cc2ccc(Cl)cc2)C1(O)Cn1cncn1 (stereo not drawn) [Ipconazole, ipconazole] | 0 | 0 | 0 | –
OC(Cc1ccccc1Cl)(Cn1nc[nH]c1=S)C1(Cl)CC1 (stereo not drawn) [Prothioconazole] | 0 | – | – | –
CC(C)(C)C(O)(CCc1ccc(Cl)cc1)Cn1cncn1 (stereo not drawn) [Tebuconazole, tebuconazole] | 0 | 0 | 0 | –
CC1(C)[C@H](C=C(Cl)Cl)[C@H]1C(=O)OCc1c(F)c(F)cc(F)c1F [Transfluthrin] | – | – | – | mortality at 20 g/ha (Myzus persicae; 20 g/ha): 0%; mortality at 100 g/ha (Myzus persicae; 100 g/ha): 80%; mortality at 100 g/ha (Tetranychus urticae; 100 g/ha): 0%; mortality at 20 g/ha (Phaedon cochleariae; 20 g/ha): 0%; mortality at 4 g/ha (Spodoptera frugiperda; 4 g/ha): 50%
